Experimental data from patent US5231082A, “Cyclic peptide with anti-metastasis activity” (Monsanto Company, priority 1989, dated 1993).
Peptide text beside a SMILES is read from it.

Experiments:
[1] = tested on: 67 kd laminin receptor; experiment: Laminin receptor binding / elution from laminin affinity columns
[2] = tested on: HT-1080 cells; experiment: In vitro cell attachment assays; type: cell-based, human
Method: HT-1080 cells from a human fibrosarcoma (Rasheed, S. et al., Cancer (Philadelphia) 33:1027 (1974) are maintained in Dulbecco's modified Eagle's medium (DMEM) supplemented with 10% fetal calf serum. After the cells are grown to 80% confluency, they are washed with 0.02M phosphate buffer, pH 7.4, without CA^+2 and Mg^+2 and detached with a solution of 0.025% trypsin plus 0.025% ethylenediaminetetraacetic acid (EDTA; GIBCO). The cells are then pelleted by low speed centrifugation and resuspended in Eagle's minimal essential medium (EMEM) containing 0.02% bovine serum albumin (BSA, Sigma Chemical Co., St. Louis, Mo.). Cell attachment assays are performed as described in Klebe, R.J. Nature (London) 250:248 (1974), on tissue culture plastic substrates by using 16-mm Falcon tissue culture wells (Fisher Scientific Co., Pittsburg, Pa.) incubated with various peptides or with laminin in lmL of EMEM containing 0.02% BSA for 1 or 2 hours at 37° C. Cells (10^5 in 0.1 mL) are added to the wells, and the solution is incubated for an additional 1 hour at 37° C. in 95% air and 5% CO2. Subsequently, the wells are rinsed 3 times with lmL of phosphate-buffered saline (PBS) to remove unattached cells. Attached cells are trypsinized and counted electronically (Coulter, ZBI). […]

[3] = tested on: B16F10 melanoma cells; experiment: Lung tumor colonization assay; type: in vivo, mice
Method: B16F10 melanoma cells, obtained from I.J. Fidler, M.D., Anderson Hospital, Houston, TX, are propagated under standard culture conditions. The lung tumor colonization assay is carried out as described in Fidler, I.J., Nature (London) (New Biol.) 242:148 (1973). Peptides are dissolved at 5 mg/mL in PBS and are filter-sterilized. The suspension of B16F10 cells (5×10^5) in 0.1 mL of DMEM is mixed with 0.1 mL of the peptide (or .1 ml PBS in control), incubated for 5 minutes at room temperature, and then injected into the tail vein of syngeneic C57BL/6 female mice (Jackson Labs., Bar Harbor, Me.) at 6 weeks of age. Each treatment and control group consists of eight mice. Three weeks after the injections, the mice are killed and the number of pulmonary tumors on the surface of the lungs counted.

With `CC[C@H](C)[C@@H]1NC(=O)[C@H](Cc2ccc(O)cc2)NC(=O)[C@@H](CCCNC(=N)N)NC(=O)[C@H](CO)NC(=O)CNC1=O` [cyclic peptide of the invention] (HELM PEPTIDE1{G.S.[dR].Y.I}$PEPTIDE1,PEPTIDE1,1:R1-5:R2$$$V2.0) the “elution of laminin receptor from laminin affinity columns” value [1] was “elutes the laminin receptor from laminin affinity columns”, the “binding of laminin receptor” value ([1]; 67 kd laminin receptor) was “binds the 67 kd laminin receptor” and the “affinity for cell adhesion” value ([2]; HT-1080 cells, compared with the straight chain peptide, FIG. 1) was “higher affinity for cell adhesion than the straight chain peptide”. For the same compound, the “blocking of cell adhesion and laminin-mediated adhesion” value ([2]; summary statement) was “blocks cell adhesion, laminin-mediated adhesion”, the “in vivo antimetastatic effectiveness (number of pulmonary tumors on the surface of the lungs)” value ([3]; B16F10 cells mixed with peptide, injected into tail vein of C57BL/6 female mice, counted three weeks after injection, compared with linear YIGSR-NH2, FIG. 2) was “at least twice as effective as linear YIGSR-NH2” and the melanoma cell colonization ([3]; summary statement) was “blocks”.
